Where two headings read alike, the source gives them in different places.
Legend:
Type in all cases: cell-based
[1] = molecular target: T1, hGIPR (Homo sapiens, UniProt P48546); assay: Functional cAMP formation (HTRF) in HEK-293 clonal cells expressing hGIPR, 0.1% bovine casein, without or with 1.0% human serum albumin; conditions: for Emax: percent of maximal response to GIP(1-42)NH2; for EC50: cAMP
T1 construct: expressed in transfected cells
T1 sequence (P48546 22-466): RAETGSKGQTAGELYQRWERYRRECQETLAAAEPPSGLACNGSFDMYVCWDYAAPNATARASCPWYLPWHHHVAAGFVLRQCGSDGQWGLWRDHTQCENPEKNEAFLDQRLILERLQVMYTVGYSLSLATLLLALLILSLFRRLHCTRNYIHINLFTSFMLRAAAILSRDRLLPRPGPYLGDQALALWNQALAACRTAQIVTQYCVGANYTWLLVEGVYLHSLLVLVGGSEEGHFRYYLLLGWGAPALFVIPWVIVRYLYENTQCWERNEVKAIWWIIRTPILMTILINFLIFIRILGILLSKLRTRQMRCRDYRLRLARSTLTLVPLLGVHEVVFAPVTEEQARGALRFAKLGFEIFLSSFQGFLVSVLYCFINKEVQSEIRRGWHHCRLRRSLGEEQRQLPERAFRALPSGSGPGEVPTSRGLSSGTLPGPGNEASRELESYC
Outline: (§1)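 Readings of the HTRF 665/620 nm ratio, which falls as cAMP rises, were converted to nM cAMP using a standard curve after 30 min peptide exposure at 37° C.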

[2] = molecular target: T2, hGCGR (Homo sapiens, UniProt P47871); assay: Functional cAMP formation (HTRF) in HEK-293 clonal cells expressing hGCGR, 0.1% bovine casein, without or with 1.0% human serum albumin; conditions: cAMP, 37° C.
T2 construct: expressed in transfected cells
Outline: as §1

[3] = molecular target: hGLP-1R (Homo sapiens, UniProt P43220); assay: Functional cAMP formation (HTRF) in HEK-293 clonal cells expressing hGLP-1R, 0.1% bovine casein, without or with 1.0% human serum albumin; parameters: expressed in transfected cells; conditions: for Emax: percent of maximal response to GLP-1(7-36)NH2; for EC50: cAMP, 0.1% bovine casein (no human serum albumin), geometric mean
Outline: as §1

[4] = HEK293, read-out: hGIPR Emax, % ± SEM, cAMP, 37° C., 0.1% bovine casein and 1.0% human serum albumin
[5] = HEK293, read-out: hGIPR Emax, % ± SEM, cAMP, 37° C., 0.1% bovine casein, arithmetic mean
[6] = hGIPR EC50, nM (SEM, n), 37° C., 0.1% bovine casein (no human serum albumin), geometric mean
[7] = hGCGR EC50, nM (SEM, n), 0.1% bovine casein (no human serum albumin), geometric mean
[8] = hGCGR EC50, nM (SEM, n), 0.1% bovine casein and 1.0% human serum albumin, geometric mean (SEM, n)
[9] = HEK293, read-out: hGLP-1R Emax, % ± SEM, cAMP, 37° C., 0.1% bovine casein and 1.0% human serum albumin
[10] = hGLP-1R EC50, nM (SEM, n), 37° C.

hGLP-1R, sequence (P43220 24-463): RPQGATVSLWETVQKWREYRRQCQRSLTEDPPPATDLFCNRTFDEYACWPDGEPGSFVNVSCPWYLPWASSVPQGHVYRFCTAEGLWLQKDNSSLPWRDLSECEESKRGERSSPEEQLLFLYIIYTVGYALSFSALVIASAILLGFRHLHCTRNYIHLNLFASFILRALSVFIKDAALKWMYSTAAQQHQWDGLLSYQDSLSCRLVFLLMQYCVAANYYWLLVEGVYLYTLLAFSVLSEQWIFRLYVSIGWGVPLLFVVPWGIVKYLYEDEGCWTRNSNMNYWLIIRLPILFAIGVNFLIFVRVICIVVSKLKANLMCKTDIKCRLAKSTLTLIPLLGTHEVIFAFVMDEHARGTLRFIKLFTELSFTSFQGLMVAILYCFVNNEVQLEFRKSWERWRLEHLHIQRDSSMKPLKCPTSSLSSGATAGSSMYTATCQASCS
T2 sequence (P47871 26-477): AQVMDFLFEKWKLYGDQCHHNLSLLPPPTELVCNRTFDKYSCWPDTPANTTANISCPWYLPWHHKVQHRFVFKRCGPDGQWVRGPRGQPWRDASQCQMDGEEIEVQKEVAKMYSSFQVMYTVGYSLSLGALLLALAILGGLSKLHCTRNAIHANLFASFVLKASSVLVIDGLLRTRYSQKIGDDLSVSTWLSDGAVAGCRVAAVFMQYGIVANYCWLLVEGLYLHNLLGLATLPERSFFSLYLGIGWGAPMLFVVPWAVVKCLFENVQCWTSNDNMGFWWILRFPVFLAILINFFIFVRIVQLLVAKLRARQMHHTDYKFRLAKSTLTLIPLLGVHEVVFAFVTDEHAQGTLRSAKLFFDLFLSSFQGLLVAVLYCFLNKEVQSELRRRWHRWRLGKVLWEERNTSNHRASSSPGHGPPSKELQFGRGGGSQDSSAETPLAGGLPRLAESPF

SMILES | Emax ([1]; HEK293, cAMP, 37° C., 0.1% bovine casein and 1.0% human serum albumin, read-out: hGIPR Emax, % ± SEM) | Emax ([1]; HEK293, cAMP, 37° C., 0.1% bovine casein, arithmetic mean, read-out: hGIPR Emax, % ± SEM) | EC50 ([1]; 37° C., 0.1% bovine casein (no human serum albumin), geometric mean, read-out: hGIPR EC50, nM (SEM, n)) | EC50 ([1]; 37° C., 0.1% bovine casein and 1.0% human serum albumin, geometric mean (SEM, n), read-out: hGIPR EC50, nM (SEM, n)) | EC50 ([2]; 0.1% bovine casein (no human serum albumin), geometric mean, read-out: hGCGR EC50, nM (SEM, n)) | EC50 ([2]; 0.1% bovine casein and 1.0% human serum albumin, geometric mean (SEM, n), read-out: hGCGR EC50, nM (SEM, n)) | Emax ([3]; HEK293, cAMP, 37° C., 0.1% bovine casein and 1.0% human serum albumin, read-out: hGLP-1R Emax, % ± SEM) | Emax ([3]; HEK293, cAMP, 37° C., 0.1% bovine casein, arithmetic mean, read-out: hGLP-1R Emax, % ± SEM) | EC50 ([3]; 37° C., read-out: hGLP-1R EC50, nM (SEM, n)) | Emax [1, 4] | Emax [1, 5] | EC50 [1, 6] | EC50 [2, 7] | EC50 [2, 8] | Emax [3, 9] | Emax ([3]; HEK293, read-out: hGLP-1R Emax, % ± SEM, cAMP, 37° C., 0.1% bovine casein, arithmetic mean) | EC50 [3, 10]
CC[C@H](C)[C@H](NC(=O)[C@H](CCCN)NC(=O)[C@H](CC(=O)O)NC(=O)[C@H](CC(C)C)NC(=O)[C@](C)(CC(C)C)NC(=O)[C@@H](NC(=O)C(C)(C)NC(=O)[C@@H](NC(=O)[C@H](CC(=O)O)NC(=O)[C@H](CO)NC(=O)[C@@H](NC(=O)[C@](C)(Cc1ccccc1F)NC(=O)[C@@H](NC(=O)CNC(=O)[C@H](CCC(=O)O)NC(=O)C(C)(C)NC(=O)[C@@H](N)Cc1ccc(O)cc1)[C@@H](C)O)[C@@H](C)O)C(C)C)[C@@H](C)CC)C(=O)N[C@@H](C)C(=O)N[C@@H](CCC(N)=O)C(=O)NC(C)(C)C(=O)N[C@@H](CCC(=O)O)C(=O)N[C@@H](Cc1ccccc1)C(=O)N[C@H](C(=O)N[C@@H](CCCCNC(=O)COCCOCCNC(=O)COCCOCCNC(=O)COCCOCCNC(=O)CC[C@H](NC(=O)CCCCCCCCCCCCC(=O)O)C(=O)O)C(=O)N[C@@](C)(Cc1ccc(O)cc1)C(=O)N[C@@H](CC(C)C)C(=O)N[C@H](C(=O)N[C@@H](CCCCNC(=O)COCCOCCNC(=O)COCCOCCNC(=O)COCCOCCNC(=O)CC[C@H](NC(=O)CCCCCCCCCCCCC(=O)O)C(=O)O)C(=O)NCC(=O)NCC(=O)N1CCC[C@H]1C(=O)N[C@@H](CO)C(=O)N[C@@H](CO)C(=O)NCC(=O)N[C@@H](C)C(=O)N1CCC[C@H]1C(=O)N1CCC[C@H]1C(=O)N1CCC[C@H]1C(=O)N[C@@H](CO)C(N)=O)[C@@H](C)CC)[C@@H](C)CC [Example 344] | 87.3% | 97.9% | 0.0174 nM | 6.78 nM | > 9950 nM | > 9950 nM | 96.5% | 100% | 0.336 nM | – | – | – | – | – | – | – | –
CC[C@H](C)[C@H](NC(=O)[C@H](CCCN)NC(=O)[C@H](CC(=O)O)NC(=O)[C@H](CC(C)C)NC(=O)[C@](C)(CC(C)C)NC(=O)[C@@H](NC(=O)C(C)(C)NC(=O)[C@H](Cc1ccncc1)NC(=O)[C@H](CC(=O)O)NC(=O)[C@H](CO)NC(=O)[C@@H](NC(=O)[C@](C)(Cc1ccccc1F)NC(=O)[C@@H](NC(=O)CNC(=O)[C@H](CCC(=O)O)NC(=O)C(C)(C)NC(=O)[C@@H](N)Cc1ccc(O)cc1)[C@@H](C)O)[C@@H](C)O)[C@@H](C)CC)C(=O)N[C@@H](C)C(=O)N[C@@H](CCC(N)=O)C(=O)NC(C)(C)C(=O)N[C@@H](CCC(=O)O)C(=O)N[C@@H](Cc1ccccc1)C(=O)N[C@H](C(=O)N[C@@H](CCCCNC(=O)COCCOCCNC(=O)COCCOCCNC(=O)COCCOCCNC(=O)CC[C@H](NC(=O)CCCCCCCCCOc1ccc(C(=O)O)cc1)C(=O)O)C(=O)N[C@@](C)(Cc1ccc(O)cc1)C(=O)N[C@@H](CC(C)C)C(=O)N[C@H](C(=O)N[C@@H](CCCCNC(=O)COCCOCCNC(=O)COCCOCCNC(=O)COCCOCCNC(=O)CC[C@H](NC(=O)CCCCCCCCCOc1ccc(C(=O)O)cc1)C(=O)O)C(=O)NCC(=O)NCC(=O)N1CCC[C@H]1C(=O)N[C@@H](CO)C(=O)N[C@@H](CO)C(=O)NCC(=O)N[C@@H](C)C(=O)N1CCC[C@H]1C(=O)N1CCC[C@H]1C(=O)N1CCC[C@H]1C(=O)N[C@@H](CO)C(N)=O)[C@@H](C)CC)[C@@H](C)CC [Example 345] | – | – | – | – | – | – | – | – | – | 86.8% | 98.9% | 0.0147 nM | > 9950 nM | > 9950 nM | 110% | 105% | 0.285 nM
CC[C@H](C)[C@H](NC(=O)[C@H](CCCN)NC(=O)[C@H](CC(=O)O)NC(=O)[C@H](CC(C)C)NC(=O)[C@](C)(CC(C)C)NC(=O)[C@@H](NC(=O)C(C)(C)NC(=O)[C@H](Cc1ccc(O)cc1)NC(=O)[C@H](CC(=O)O)NC(=O)[C@H](CO)NC(=O)[C@@H](NC(=O)[C@](C)(Cc1ccccc1F)NC(=O)[C@@H](NC(=O)CNC(=O)[C@H](CCC(=O)O)NC(=O)C(C)(C)NC(=O)[C@@H](N)Cc1ccc(O)cc1)[C@@H](C)O)[C@@H](C)O)[C@@H](C)CC)C(=O)N[C@@H](C)C(=O)N[C@@H](CCC(N)=O)C(=O)NC(C)(C)C(=O)N[C@@H](CCC(=O)O)C(=O)N[C@@H](Cc1ccccc1)C(=O)N[C@H](C(=O)N[C@@H](CCCCNC(=O)COCCOCCNC(=O)COCCOCCNC(=O)COCCOCCNC(=O)CC[C@H](NC(=O)CCCCCCCCCOc1ccc(C(=O)O)cc1)C(=O)O)C(=O)N[C@@](C)(Cc1ccc(O)cc1)C(=O)N[C@@H](CC(C)C)C(=O)N[C@H](C(=O)N[C@@H](CCCCNC(=O)COCCOCCNC(=O)COCCOCCNC(=O)COCCOCCNC(=O)CC[C@H](NC(=O)CCCCCCCCCOc1ccc(C(=O)O)cc1)C(=O)O)C(=O)NCC(=O)NCC(=O)N1CCC[C@H]1C(=O)N[C@@H](CO)C(=O)N[C@@H](CO)C(=O)NCC(=O)N[C@@H](C)C(=O)N1CCC[C@H]1C(=O)N1CCC[C@H]1C(=O)N1CCC[C@H]1C(=O)N[C@@H](CO)C(N)=O)[C@@H](C)CC)[C@@H](C)CC [Example 346] | – | – | – | – | – | – | – | – | – | 83.9% | 96.6% | 0.0194 nM | > 9950 nM | > 9950 nM | 97.7% | – | 0.329 nM
CC[C@H](C)[C@H](NC(=O)[C@H](CCCN)NC(=O)[C@H](CC(=O)O)NC(=O)[C@H](CC(C)C)NC(=O)[C@](C)(CC(C)C)NC(=O)[C@@H](NC(=O)C(C)(C)NC(=O)[C@@H](NC(=O)[C@H](CC(=O)O)NC(=O)[C@H](CO)NC(=O)[C@@H](NC(=O)[C@](C)(Cc1ccccc1F)NC(=O)[C@@H](NC(=O)CNC(=O)[C@H](CCC(=O)O)NC(=O)C(C)(C)NC(=O)[C@@H](N)Cc1ccc(O)cc1)[C@@H](C)O)[C@@H](C)O)C(C)C)[C@@H](C)CC)C(=O)N[C@@H](C)C(=O)N[C@@H](CCC(N)=O)C(=O)NC(C)(C)C(=O)N[C@@H](CCC(=O)O)C(=O)N[C@@H](Cc1ccccc1)C(=O)N[C@H](C(=O)N[C@@H](CCCCNC(=O)COCCOCCNC(=O)COCCOCCNC(=O)COCCOCCNC(=O)CC[C@H](NC(=O)CCCCCCCCCOc1ccc(C(=O)O)cc1)C(=O)O)C(=O)N[C@@](C)(Cc1ccc(O)cc1)C(=O)N[C@@H](CC(C)C)C(=O)N[C@H](C(=O)N[C@@H](CCCCNC(=O)COCCOCCNC(=O)COCCOCCNC(=O)COCCOCCNC(=O)CC[C@H](NC(=O)CCCCCCCCCOc1ccc(C(=O)O)cc1)C(=O)O)C(=O)NCC(=O)NCC(=O)N1CCC[C@H]1C(=O)N[C@@H](CO)C(=O)N[C@@H](CO)C(=O)NCC(=O)N[C@@H](C)C(=O)N1CCC[C@H]1C(=O)N1CCC[C@H]1C(=O)N1CCC[C@H]1C(=O)N[C@@H](CO)C(N)=O)[C@@H](C)CC)[C@@H](C)CC [Example 347] | – | – | – | – | – | – | – | – | – | 84.6% | 98% | 0.0259 nM | > 9950 nM | > 9950 nM | – | – | 0.356 nM
